Assay results taken from patent publication US4605651A, “Antibiotic amino acid derivatives of cephalosporins” (Kyoto Pharmaceutical Industries, Ltd., priority 1982, dated 1986).
Counter-ions that a name gives are not always drawn.

Assays:
[1] = parameters: species or system humans; conditions: human, in vivo, po, 480 min
From the text: In humans, oral administration of the cephalosporin derivatives according to the present invention led to urinary recovery of the corresponding unesterified cephalosporins at the recovery rates shown below in the table. Method of administration: A 125-mg (on the unesterified form basis) capsule was orally administered. Assay: Microbial method using Bacillus subtilis

[2] = Acute toxicity testing, oral, in mice; conditions: mouse, in vivo, aqueous solution, male ICR mice 5 weeks of age, n=3
Method: The results obtained in oral acute toxicity testing of the cephalosporin derivatives according to the present invention in mice are shown below.
Animals: Male mice (ICR, 5 weeks of age), n=3
Method of administration: The cephalosporin derivatives obtained in the above examples were dissolved in distilled water and the aqueous solutions were orally administered.

Row | Structure (SMILES) | Percent urinary recovery (Hour 0 to Hour 8) [1] | LD50 [2]
1 | CC(=O)OC(C)OC(=O)C1=C(CSc2nnc(C)s2)CSC2C(NC(=O)[C@H](OC(=O)[C@H](C)N)c3ccccc3)C(=O)N12 (stereo partly drawn) [Example 2, 1-acetoxyethyl 7-[D-O-(L-alanyl)mandelamido]-3-[(5-methyl-1,3,4-thiadiazol-2-yl)thiomethyl]-3-cephem-4-carboxylate hydrochloride] | 35.2% | –
2 | Cc1nnc(SCC2=C(C(=O)OCOC(=O)C(C)(C)C)N3C(=O)C(NC(=O)[C@H](OC(=O)[C@@H]4CCCN4)c4ccccc4)C3SC2)s1 (stereo partly drawn) [Example 7, Pivaloyloxymethyl 7-[D-O-(L-prolyl)mandelamido]-3-[(5-methyl-1,3,4-thiadiazol-2-yl)thiomethyl]-3-cephem-4-carboxylate hydrochloride] | 41.0% | 5000 mg/kg
3 | Cc1nnc(SCC2=C(C(=O)OCc3oc(=O)oc3C)N3C(=O)C(NC(=O)[C@H](OC(=O)[C@H](C)N)c4ccccc4)C3SC2)s1 (stereo partly drawn) [Example 9, (5-Methyl-1,3-dioxolen-2-on-4-ylmethyl) 7-[D-O-(L-alanyl)mandelamido]-3-[(5-methyl-1,3,4-thiadiazol-2-yl)thiomethyl]-3-cephem-4-carboxylate hydrochloride] | 41.0% | 5000 mg/kg
4 | CC(=O)OC(C)OC(=O)C1=C(CSc2nnc(C)s2)CSC2C(NC(=O)[C@H](OC(=O)[C@@H]3CCCN3)c3ccccc3)C(=O)N12 (stereo partly drawn) [Example 17, 1-Acetoxyethyl 7-[D-O-(L-prolyl)mandelamido]-3-[(5-methyl-1,3,4-thiadiazol-2-yl)thiomethyl]-3-cephem-4-carboxylate hydrochloride] | 40.9% | 5000 mg/kg
5 | CCOC(=O)OC(C)OC(=O)C1=C(CSc2nncs2)CSC2C(NC(=O)[C@H](OC(=O)[C@H](C)N)c3ccccc3)C(=O)N12 (stereo partly drawn) [Example 3, 1-ethoxycarbonyloxyethyl 7-[D-O-(L-alanyl)mandelamido]-3-[(1,3,4-thiadiazol-2-yl)thiomethyl]-3-cephem-4-carboxylate] | 37.0% | –
6 | Cn1nnnc1SCC1=C(C(=O)OCOC(=O)C(C)(C)C)N2C(=O)C(NC(=O)[C@H](OC(=O)CN)c3ccccc3)C2SC1 (stereo partly drawn) [Example 1, pivaloyloxymethyl 7-[D-O-(glycyl)mandelamido]-3-[(1-methyl-1H-tetrazol-5-yl)thiomethyl]-3-cephem-4-carboxylate hydrochloride] | 38.0% | 5000 mg/kg
7 | Cc1nnc(SCC2=C(C(=O)OCOC(=O)C(C)(C)C)N3C(=O)C(NC(=O)[C@H](OC(=O)[C@@H](N)C(C)C)c4ccccc4)C3SC2)s1 (stereo partly drawn) [Example 6, Pivaloyloxymethyl 7-[D-O-(L-valyl)mandelamido]-3-[(5-methyl-1,3,4-thiadiazol-2-yl)thiomethyl]-3-cephem-4-carboxylate hydrochloride] | 36.0% | –
